Laboratory results reported in patent US10487045B2, “Adamantane derivative and use thereof” (TOHOKU UNIVERSITY, priority 2016, dated 2019).

Tests used:
[1] = system: APP23 mice; test: New object recognition test in Alzheimer's disease model mice; assay type: in vivo; conditions: APP23 mice 12 month-old, administered for two months
Procedure: The new object recognition test method is carried out as follows. Two identical shape building blocks are placed in a mouse cage and mice are allowed to play for 10 minutes (this is referred to as a training trial). One hour later, one of the building blocks was replaced with a different-shaped building block. Since normal mice show interest on a new object, they play a longer time with the different-shaped building block. The Alzheimer's disease (model) mice, since the mice fail to recognize the new object (building block), are seemed to have memory disturbance. Mice are allowed to freely play for further 5 minutes with two building blocks different in shape (this is referred to as retention trial). In the training trial and retention trial, the number of times a mouse is in contact with each of the two objects was counted. The ratio (%) of the number of contact times to the different-shaped building block to the total number of contact times in the retention trial was calculated and used as a discrimination index.

[2] = system: Kir6.1 defective mice; test: Tail-suspension and forced swim methods in Kir6.1 defective mice (hetero-type); assay type: in vivo; conditions: chronic treatment
Procedure: OBX mice were originally established as depression model mice although a deterioration of cognitive function was observed. Depression was analyzed by a tail-suspension method (a) and a forced swim method (b). The tail-suspension method is a method of pinching the tail of a mouse and hanging the mouse upside down. If the mouse hung has depression, immobility time is long. Since a normal mouse moves even if it is hung, the immobility time is short. In the forced swim method, a mouse is forced to swim in water in a beaker. A mouse having depression neither swims nor moves (just floating). Thus the immobility time is measured. Immobility time was long in OBX mice both in the tail-suspension method (a) and the forced swim method (b). The immobility time of a TP-014 chronic administration group (2 weeks, in the same administration method as that previously mentioned) was improved.
Immobility time of Kir6.1 defective mice (hetero-type, n=5 per group) was measured by the tail-suspension method (a) and the forced swim method (b) in the same manner as in FIGS. 11a and 11b. The hetero-type mice are the mice in which the expression level of Kir6.1 channel is half (the homo type mice develops arrhythmia after birth and dies) in contrast to the homo type mice (complete defective mice). […] The chronic treatment with TP-014 was not effective. […]

[3] = system: APP23 mice; test: Aβ aggregation in brain slices, staining with 6E10 and thioflavin; assay type: in vivo; conditions: APP23 mice (14 months old), chronic treatment, brain slice sections
Description: The hypothesis that amyloid-β (Aβ) is a cause of Alzheimer's disease has now still important. AP aggregation, which occurs in APP23 mice (14 months old) was confirmed by immunostaining. The brains of a WT (control mouse) and APP23 mouse were cut into slice sections of 50 micrometers in thickness. The slice sections were stained with 6E10 (Aβ antibody, manufactured by Abeam) and thioflavin. The conditions other than the above were the same as in the ordinary immunostaining method. […] In contrast, aggregation was not virtually observed in the hippocampus (CA1). Aβ aggregation was inhibited by TP-014 chronic treatment.

[4] = system: olfactory bulbectomized mice (OBX mice); test: Cognitive function tests (Y-maze, new object recognition, fear conditioning, LTP) in olfactory bulbectomized mice; assay type: in vivo; conditions: chronic administration (2 weeks)
[5] = system: Kir6.2 channel deficient mice; test: Cognitive function tests and LTP in Kir6.2 channel deficient mice; assay type: in vivo; conditions: chronic treatment (two months)
Description: To confirm that TP-014 action is Kir6.2 channel inhibitory action, the action site of TP-014 was identified by the same behavioral experiment as in FIG. 4 (FIG. 8a and FIG. 8b: Y-maze test, FIG. 8c: new object recognition test method, FIG. 8d: fear conditioning test method, FIG. 8e to FIG. 8g: LTP improvement evaluation, n=5 per group) using Kir6.2 channel deficient mice. It was confirmed that cognitive dysfunction is induced in Kir6.2 defective mice. […] It was also shown that memory disturbance and LTP attenuation of Kir6.2 defective mice are not improved by TP-014 chronic treatment (two months). […] The analytical methods are the same as in Test Examples 4 to 7. Note that, Kir6.2 defective mice were obtained from Professor Susumu Seino, School of Medicine of Kobe University (Miki T et al., Proc. Natl. Acad. Sci. U.S.A. 1998, 95, 10402-10406).

[6] = system: APP23 mice; test: Fear conditioning test in Alzheimer's disease model mice; assay type: in vivo; conditions: APP23 mice treated for two months
Description: The fear conditioning test method is an analysis taking an advantage of mouse's preposition in favor of a dark place rather than a bright place. Day 1, a mouse is placed in a bright place. Since a mouse is fond of a dark place, the mouse enters a dark place (dark box). When an electrical stimulation is given to the mouse at this time, the mouse is surprised and returns to the bright place and never enters the dark place. Day 2, the mouse is placed in the bright place (the same place as on Day 1), and then, whether the mouse enters a dark place or not is observed for 5 minutes. If the mouse enters the dark place right away, it is determined that fear memory of the mouse declined. “Latency” is a time period (seconds) until the mouse placed in a bright place enters the dark plate (darkroom) on Day 2.

[7] = molecular target: T1, Kir6.2 channel (Mus musculus, UniProt Q61743); test: Calcium imaging method (Fura2) in Kir6.2 channel-overexpressing cells; assay type: cell-based
T1 construct: expressed in transfected cells; host or cells: Neuro2A (N2A) cells, transient transfection with pcDNA3.1-Kir6.2 (gift of Dr. Toru Ishizuka, Tohoku University)
T1 sequence (Q61743 1-390): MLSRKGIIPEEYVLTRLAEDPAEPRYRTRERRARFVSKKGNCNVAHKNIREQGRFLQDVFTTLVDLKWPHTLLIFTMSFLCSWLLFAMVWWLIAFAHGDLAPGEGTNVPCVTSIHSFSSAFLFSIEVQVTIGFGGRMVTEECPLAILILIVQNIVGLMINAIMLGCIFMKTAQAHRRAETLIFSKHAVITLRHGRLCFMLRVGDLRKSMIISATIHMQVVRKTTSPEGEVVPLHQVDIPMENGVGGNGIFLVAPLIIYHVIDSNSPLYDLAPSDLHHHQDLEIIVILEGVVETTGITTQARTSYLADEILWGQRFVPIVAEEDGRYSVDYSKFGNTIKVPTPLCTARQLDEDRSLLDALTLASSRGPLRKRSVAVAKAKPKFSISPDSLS
Procedure: Using the same Kir6.2 channel-overexpressing cells as in Test Example 1, the amount of calcium that flows into cells from outside the cells by TP-014 treatment was measured by a calcium imaging method. The calcium imaging method is a method of measuring the amount of calcium based on the intensity of fluorescence of cultured nerve cells, which are treated in a culture solution containing a calcium fluorescent dye (Fura2, manufactured by Dojindo Laboratories) in a concentration of 4 μM. Imaging was carried out by an imaging apparatus (LAMBDA10-2, manufactured by SUTTER INSTRUMENT) in accordance with the manual attached to the apparatus.

`O=C(N[C@@H](c1ccccc1)[C@H]1[C@H]2C[C@@H]3C[C@](Cl)(C2)C[C@@]1(OC(=O)C(F)(F)F)C3)C(F)(F)F` [TP-014, (1S,2R,3S,5S,7S)-5-chloro-2-((R)-phenyl(2,2,2-trifluoroacetamido)methyl)adamantan-1-yl 2,2,2-trifluoroacetate] was tested, and the “cognitive function, new object recognition test (discrimination index)” value [1] was “effectively improved”, the “depression-like symptom, immobility time in Kir6.1 defective mice” value [2] was “not effective” and the Aβ aggregation [3] was “inhibited”. The “cognitive dysfunction of OBX mice” value [4] was “significantly improved”, the “memory disturbance and LTP attenuation of Kir6.2 defective mice” value [5] was “not improved” and the “fear memory (latency, fear conditioning test)” value [6] was “improvement effect”. For the same compound, the “calcium concentration increasing effect compared with memantine” value ([7]; TP-014 1-100 nM vs memantine 100 nM) was “larger calcium concentration increasing effect than memantine” and the “amount of calcium within cells” value ([7]; TP-014 1-100 nM, 4 minutes after treatment, Kir6.2 channel-overexpressing cells) was “significantly increased”.
